The values below are quoted from earlier work in patent US11298363B2, “Triazolobenzazepines as vasopressin V1a receptor antagonists” (RICHTER GEDEON NYRT., priority 2017, dated 2022).

The target in data set [1] is human V1a receptor (Homo sapiens, UniProt P37288). Particulars: cited from earlier work.
For data set [2] the following is noted: rats; cited from earlier work.
The target of data set [3] is V1aR (Homo sapiens, UniProt P37288). The note with it: humans, Phase 1; cited from earlier work.
Sequence of V1aR (P37288 whole entry): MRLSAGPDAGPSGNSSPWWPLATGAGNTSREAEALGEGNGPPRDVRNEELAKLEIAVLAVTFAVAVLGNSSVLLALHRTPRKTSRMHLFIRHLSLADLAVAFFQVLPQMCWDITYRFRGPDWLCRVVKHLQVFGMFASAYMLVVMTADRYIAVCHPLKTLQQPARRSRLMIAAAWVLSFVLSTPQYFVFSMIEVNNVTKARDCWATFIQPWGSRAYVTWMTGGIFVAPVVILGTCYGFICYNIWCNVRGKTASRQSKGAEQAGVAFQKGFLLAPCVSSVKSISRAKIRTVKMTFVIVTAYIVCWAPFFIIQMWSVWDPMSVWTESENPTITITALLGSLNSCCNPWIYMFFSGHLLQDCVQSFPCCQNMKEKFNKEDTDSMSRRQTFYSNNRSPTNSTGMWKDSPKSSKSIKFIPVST

Sequence of human V1a receptor (P37288 whole entry): as above

With `CN(Cc1cccc(C(F)(F)F)c1)C(=O)[C@@H](CC(=O)N1CCC(N2CCCCC2)CC1)N1C(=O)[C@@H](N2C(=O)OC[C@@H]2c2ccccc2)[C@H]1/C=C/c1ccccc1` [SRX-251], the “activity on the human V1a receptor” value in data set [1] was “active”. The “brain level relative to effective concentrations detected in the binding assay” value in data set [2] is recorded as “approximately 100 fold”.

With `CN(C)CCn1cc(C(=O)N2CCC3(CC2)OCc2ccccc23)c2ccc(Cl)cc21` [RO5028442], the “orientation of eye-gaze pattern” value in data set [3] is reported as “positive effect”.
